Key:
[1] = system: CD-4 and CD-8 lymphocyte subpopulations; conditions: oral or parenteral, free acid or salt form; cited from earlier work
[2] = diet containing 0.5 percent CLA, cited from earlier work
[3] = Peroxide value (PV), spectrophotometric ferric thiocyanate method, after storage in open glass; type: physicochemical
Excerpt: The present invention also contemplates stabilization of the CLA acylglycerides by preventing oxidation of the compounds. The present invention is not limited to any one mechanism. Indeed, an understanding of the mechanism of the invention is not necessary to produce the composition or perform the methods of the present invention. […] After storage in open glass, the PV of CLA was 32; in comparison, the value for linoleic acid was 370.

[4] = system: rat mammary tumorigenesis; conditions: administration of CLA; cited from earlier work
[5] = system: human melanoma, colorectal and breast cancer cells; conditions: in vitro; cited from earlier work
[6] = CLA incorporated into animal feed; cited from earlier work

**Q.** For conjugated linoleic acid [CLA], which “CD-4 and CD-8 lymphocyte subpopulations” value [1] is on record?
**A.** elevation

**Q.** And the body weight [2]?
**A.** no increase

**Q.** And the fat content ([2]; pigs, mice, humans)?
**A.** significant drop

**Q.** And the protein mass ([2]; pigs, mice, humans)?
**A.** concomitant increase

**Q.** What about the “peroxide value (PV)” value [3] of the same compound?
**A.** 32

**Q.** What about the “effect on rat mammary tumorigenesis” value [4] of the same compound?
**A.** inhibits rat mammary tumorigenesis

**Q.** And the cytotoxicity [5]?
**A.** strong cytotoxic agent

**Q.** What about the “efficiency of feed conversion” value [6] of the same compound?
**A.** increased the efficiency of feed conversion

**Q.** Which “peroxide value (PV)” value [3] does the source give for `CCCCC/C=C\C/C=C\CCCCCCCC(=O)O` [linoleic acid, reference compound] here?
**A.** 370

Source: patent publication US6891054B2, “Functional acylglycerides” (Natural AS, priority 2001, dated 2005)
